Where two headings read alike, the source gives them in different places.
How the values were obtained:
stomach tissues = experiment: Stomach RNA-sequencing, ENT-02 (MSI-1436) treatment and congruence with ENT-03 (Example 10); assay type: in vivo, mice; conditions: stomach RNA-seq
Procedure: Samples of stomach tissues from the mice were analysed by RNA-sequencing on an Illumina platform.
To achieve these aims, data were subject to a quality control evaluation, differential expression and functional enrichment analyses, as well as a congruence analysis.
[…] At this threshold, differentially expressed genes were identified in all contrasts.
As mentioned previously, for statistical robustness, only those with an adjusted p-value <0.05 should be considered. […]
The amount of overlap is represented in FIGS. 28A-28D. For each comparison, the value in the plot represents the number of intersecting selected genes and the color represents the Jaccard index (the intersection over the union) for the two contrasts under consideration.
Scatter plots, upset plots, venn diagrams, hypergeometric tests and Spearman rank correlation tests were employed to assess the level of overlap as shown in FIGS. 15-27.

[1] = molecular target: T1, PP2A Alpha/PP2R1A Complex (Homo sapiens, UniProt P67775); experiment: Phosphatase panel, DiFMUP fluorescence assay; assay type: biochemical
T1 construct: purchased Recation Biology Inc
T1 sequence (P67775 whole entry): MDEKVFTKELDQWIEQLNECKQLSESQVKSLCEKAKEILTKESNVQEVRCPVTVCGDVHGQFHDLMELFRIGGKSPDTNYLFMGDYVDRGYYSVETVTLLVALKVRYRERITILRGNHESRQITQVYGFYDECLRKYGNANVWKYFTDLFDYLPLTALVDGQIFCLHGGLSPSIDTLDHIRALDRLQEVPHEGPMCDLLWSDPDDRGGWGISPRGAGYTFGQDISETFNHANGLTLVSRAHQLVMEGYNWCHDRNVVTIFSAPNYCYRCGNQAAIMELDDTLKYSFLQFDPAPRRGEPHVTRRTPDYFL
T1 sequence (P30153 whole entry partner): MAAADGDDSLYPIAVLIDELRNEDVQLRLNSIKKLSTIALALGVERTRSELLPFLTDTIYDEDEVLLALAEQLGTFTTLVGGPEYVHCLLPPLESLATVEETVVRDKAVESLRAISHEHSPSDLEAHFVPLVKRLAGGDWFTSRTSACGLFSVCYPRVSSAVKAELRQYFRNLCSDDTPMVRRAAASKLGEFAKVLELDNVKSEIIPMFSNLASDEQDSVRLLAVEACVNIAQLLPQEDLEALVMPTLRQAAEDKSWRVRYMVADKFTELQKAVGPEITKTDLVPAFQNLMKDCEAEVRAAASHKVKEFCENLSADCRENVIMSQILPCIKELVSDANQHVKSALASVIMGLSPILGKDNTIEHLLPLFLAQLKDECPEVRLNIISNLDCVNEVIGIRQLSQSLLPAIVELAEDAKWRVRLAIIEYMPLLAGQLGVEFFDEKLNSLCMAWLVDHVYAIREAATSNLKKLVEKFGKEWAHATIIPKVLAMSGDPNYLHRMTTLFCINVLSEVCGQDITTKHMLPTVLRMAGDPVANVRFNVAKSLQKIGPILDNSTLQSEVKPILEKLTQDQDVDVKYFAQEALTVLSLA

PTPN1/PTP1B = molecular target: T2, PTPN1/PTP1B (Homo sapiens, UniProt P18031); experiment: PTP1B inhibition, fluorescence time-course, 10-dose IC50 (Example 2); assay type: biochemical
T2 construct: The enzyme was the human truncated form (1-321), recombinantly produced in Escherichia coli; host or cells: Escherichia coli
T2 sequence (P18031 1-321): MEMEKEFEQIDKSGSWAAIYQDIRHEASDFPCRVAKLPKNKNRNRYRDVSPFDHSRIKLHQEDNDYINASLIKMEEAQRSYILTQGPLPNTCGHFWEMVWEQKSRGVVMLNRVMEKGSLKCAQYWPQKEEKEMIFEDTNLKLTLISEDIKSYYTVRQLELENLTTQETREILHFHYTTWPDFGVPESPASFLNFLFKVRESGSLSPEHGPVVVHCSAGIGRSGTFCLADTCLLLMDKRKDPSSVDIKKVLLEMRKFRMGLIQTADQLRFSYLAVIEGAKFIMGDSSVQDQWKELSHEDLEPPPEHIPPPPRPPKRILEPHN

PTPN6/SHP1 = molecular target: T3, PTPN6/SHP1 (Homo sapiens, UniProt P29350); experiment: Phosphatase panel, DiFMUP fluorescence assay; assay type: biochemical
T3 construct: purchased Recation Biology Inc
T3 sequence (P29350 whole entry): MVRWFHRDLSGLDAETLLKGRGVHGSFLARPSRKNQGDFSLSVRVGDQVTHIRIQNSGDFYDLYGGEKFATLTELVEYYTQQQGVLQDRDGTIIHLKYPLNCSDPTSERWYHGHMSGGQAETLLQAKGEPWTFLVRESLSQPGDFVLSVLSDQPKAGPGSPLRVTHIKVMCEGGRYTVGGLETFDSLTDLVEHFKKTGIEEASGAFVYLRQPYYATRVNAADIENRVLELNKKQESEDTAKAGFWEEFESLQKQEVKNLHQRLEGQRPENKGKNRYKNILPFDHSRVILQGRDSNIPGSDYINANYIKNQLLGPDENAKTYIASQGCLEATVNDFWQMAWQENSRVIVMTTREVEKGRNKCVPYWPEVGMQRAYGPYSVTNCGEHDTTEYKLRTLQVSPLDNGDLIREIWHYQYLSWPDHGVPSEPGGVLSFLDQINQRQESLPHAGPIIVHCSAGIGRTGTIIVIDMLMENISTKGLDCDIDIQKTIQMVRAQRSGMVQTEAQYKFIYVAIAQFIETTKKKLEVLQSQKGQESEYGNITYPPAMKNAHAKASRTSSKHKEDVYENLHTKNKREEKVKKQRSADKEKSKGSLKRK

PTPRC/CD45 = molecular target: T4, PTPRC/CD45 (Homo sapiens, UniProt P08575); experiment: Phosphatase panel, DiFMUP fluorescence assay; assay type: biochemical
T4 construct: purchased Recation Biology Inc
T4 sequence (P08575 26-1306): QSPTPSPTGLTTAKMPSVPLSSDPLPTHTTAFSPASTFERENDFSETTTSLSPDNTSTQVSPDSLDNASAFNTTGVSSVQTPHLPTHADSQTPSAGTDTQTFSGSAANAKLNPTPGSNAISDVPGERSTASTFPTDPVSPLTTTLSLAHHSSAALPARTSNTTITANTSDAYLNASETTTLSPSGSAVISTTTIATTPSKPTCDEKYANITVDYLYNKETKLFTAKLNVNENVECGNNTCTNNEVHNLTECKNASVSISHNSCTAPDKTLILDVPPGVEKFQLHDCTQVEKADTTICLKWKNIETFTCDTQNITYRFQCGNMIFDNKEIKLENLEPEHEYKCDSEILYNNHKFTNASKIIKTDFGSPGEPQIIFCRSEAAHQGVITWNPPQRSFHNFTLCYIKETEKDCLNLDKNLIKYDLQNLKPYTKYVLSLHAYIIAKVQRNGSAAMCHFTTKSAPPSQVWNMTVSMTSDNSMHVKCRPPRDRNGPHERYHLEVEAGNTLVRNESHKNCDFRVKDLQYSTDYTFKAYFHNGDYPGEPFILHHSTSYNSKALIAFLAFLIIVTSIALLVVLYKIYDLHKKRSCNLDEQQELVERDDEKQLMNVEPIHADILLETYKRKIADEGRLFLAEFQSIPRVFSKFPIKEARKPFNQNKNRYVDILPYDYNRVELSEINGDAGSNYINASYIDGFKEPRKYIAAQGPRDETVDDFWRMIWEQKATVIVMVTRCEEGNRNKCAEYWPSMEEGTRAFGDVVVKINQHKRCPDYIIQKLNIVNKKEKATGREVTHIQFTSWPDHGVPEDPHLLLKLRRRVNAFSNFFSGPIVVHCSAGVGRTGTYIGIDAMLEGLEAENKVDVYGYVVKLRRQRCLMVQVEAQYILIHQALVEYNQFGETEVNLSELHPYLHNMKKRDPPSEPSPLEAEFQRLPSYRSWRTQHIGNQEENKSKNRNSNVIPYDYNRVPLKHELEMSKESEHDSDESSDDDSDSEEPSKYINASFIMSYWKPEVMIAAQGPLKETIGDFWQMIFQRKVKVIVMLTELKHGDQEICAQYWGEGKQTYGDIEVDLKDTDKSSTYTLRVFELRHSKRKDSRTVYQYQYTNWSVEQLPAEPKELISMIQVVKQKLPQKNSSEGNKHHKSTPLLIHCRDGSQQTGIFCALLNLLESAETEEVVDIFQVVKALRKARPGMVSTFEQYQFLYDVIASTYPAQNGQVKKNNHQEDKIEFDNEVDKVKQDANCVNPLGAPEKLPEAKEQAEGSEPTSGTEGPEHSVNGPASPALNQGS

PTPN2/TC-PTP = molecular target: T5, PTPN2/TC-PTP (Homo sapiens, UniProt P17706); experiment: Phosphatase panel, DiFMUP fluorescence assay; assay type: biochemical
T5 construct: purchased Recation Biology Inc
T5 sequence (P17706 1-415): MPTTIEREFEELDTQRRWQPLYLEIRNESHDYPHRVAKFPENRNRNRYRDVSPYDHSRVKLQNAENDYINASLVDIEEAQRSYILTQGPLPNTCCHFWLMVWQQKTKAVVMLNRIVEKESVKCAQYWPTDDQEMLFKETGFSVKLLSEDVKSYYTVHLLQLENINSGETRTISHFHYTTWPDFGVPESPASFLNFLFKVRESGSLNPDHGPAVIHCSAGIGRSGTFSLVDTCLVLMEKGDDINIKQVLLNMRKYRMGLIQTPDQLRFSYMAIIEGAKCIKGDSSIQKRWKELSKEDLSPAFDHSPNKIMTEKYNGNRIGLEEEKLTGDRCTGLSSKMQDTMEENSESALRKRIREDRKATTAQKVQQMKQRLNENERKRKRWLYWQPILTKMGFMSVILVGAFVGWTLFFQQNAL

PTPN12/PTP-PEST = molecular target: T6, PTPN12/PTP-PEST (Homo sapiens, UniProt Q05209); experiment: Phosphatase panel, DiFMUP fluorescence assay; assay type: biochemical
T6 construct: purchased Recation Biology Inc
T6 sequence (Q05209 1-780): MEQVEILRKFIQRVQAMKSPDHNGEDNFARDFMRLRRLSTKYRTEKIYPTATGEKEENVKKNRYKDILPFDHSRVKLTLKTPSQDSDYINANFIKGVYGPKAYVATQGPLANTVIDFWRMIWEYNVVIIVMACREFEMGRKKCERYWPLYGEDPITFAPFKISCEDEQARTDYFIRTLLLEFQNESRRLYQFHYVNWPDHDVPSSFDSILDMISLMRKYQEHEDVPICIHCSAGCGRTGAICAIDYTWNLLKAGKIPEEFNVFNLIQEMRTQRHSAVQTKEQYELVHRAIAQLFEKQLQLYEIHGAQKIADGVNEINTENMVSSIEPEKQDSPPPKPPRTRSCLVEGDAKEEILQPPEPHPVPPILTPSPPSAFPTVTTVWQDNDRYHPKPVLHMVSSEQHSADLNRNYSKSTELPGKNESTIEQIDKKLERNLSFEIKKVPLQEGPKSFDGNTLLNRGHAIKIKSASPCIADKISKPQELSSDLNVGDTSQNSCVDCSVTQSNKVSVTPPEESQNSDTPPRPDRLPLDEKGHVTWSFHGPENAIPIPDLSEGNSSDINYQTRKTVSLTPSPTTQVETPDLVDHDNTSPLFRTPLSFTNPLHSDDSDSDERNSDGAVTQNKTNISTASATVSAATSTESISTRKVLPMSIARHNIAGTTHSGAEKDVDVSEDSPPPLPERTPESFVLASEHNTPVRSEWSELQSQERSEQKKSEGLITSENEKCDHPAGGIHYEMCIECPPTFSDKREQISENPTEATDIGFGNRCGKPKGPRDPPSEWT

[2] = molecular target: Tyrosine-protein phosphatase non-receptor type 11 (Homo sapiens, UniProt Q06124); experiment: Phosphatase panel, DiFMUP fluorescence assay; assay type: biochemical
Sequence of Tyrosine-protein phosphatase non-receptor type 11 (Q06124 247-517): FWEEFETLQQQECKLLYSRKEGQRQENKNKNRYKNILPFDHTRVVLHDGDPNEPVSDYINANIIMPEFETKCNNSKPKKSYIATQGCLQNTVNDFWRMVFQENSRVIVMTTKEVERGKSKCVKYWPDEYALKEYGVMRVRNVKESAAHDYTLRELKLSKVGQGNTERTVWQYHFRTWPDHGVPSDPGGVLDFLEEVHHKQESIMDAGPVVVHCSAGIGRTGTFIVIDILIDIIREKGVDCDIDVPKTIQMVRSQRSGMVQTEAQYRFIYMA

With `CC(C)[C@@H](CC[C@@H](C)[C@H]1CC[C@H]2[C@@H]3[C@H](O)C[C@H]4C[C@@H](NCCCNCCCCN)CC[C@]4(C)[C@H]3CC[C@]12C)OS(=O)(=O)O` (single isomer, unassigned) [Ent-01, Squalamine] the “number of significant features, down-regulated, fold change threshold 4x” value (stomach tissues; old vs young mice, both treated, threshold 4x) was 69, the “number of significant features, down-regulated, fold change threshold 8x” value (stomach tissues; old vs young mice, both treated, threshold 8x) was 36 and the “number of significant features, down-regulated, fold change threshold 16x” value (stomach tissues; old vs young mice, both treated, threshold 16x) was 27. For the same molecule, the “number of significant features, down-regulated, fold change threshold 4x” value (stomach tissues; treatment vs control, old mice, threshold 4x) was 66, the “number of significant features, down-regulated, fold change threshold 8x” value (stomach tissues; treatment vs control, old mice, threshold 8x) was 25 and the “number of significant features, down-regulated, fold change threshold 16x” value (stomach tissues; treatment vs control, old mice, threshold 16x) was 11. The “number of significant features, down-regulated, fold change threshold 8x” value (stomach tissues; treatment vs control, young mice, threshold 8x) was 47, the “number of significant features, down-regulated, fold change threshold 16x” value (stomach tissues; treatment vs control, young mice, threshold 16x) was 12 and the “number of significant features, up-regulated, fold change threshold 4x” value (stomach tissues; treatment vs control, young mice, up-regulated, threshold 4x) was 58. For the same molecule, the “number of significant features, up-regulated, fold change threshold 8x” value (stomach tissues; treatment vs control, young mice, up-regulated, threshold 8x) was 38 and the “number of significant features, up-regulated, fold change threshold 16x” value (stomach tissues; treatment vs control, young mice, up-regulated, threshold 16x) was 28.

In the case of `CC1(C(=O)O)C2CCC(O2)C1(C)C(=O)O` (centres unmarked) [Canthardic Acid, Cantharidic acid, reference compound], the IC50 ([1]; Compound IC50 (M) PP2A Alpha/PP2R1A Complex, Table 5B) is reported as 1.7e-08 M, the IC50 ([1]; inhibitory activity PP2A Alpha/PP2R1A Complex, Table 18A) is reported as 2.78e-08 M and the IC50 ([1]; inhibitory activity PP2A Alpha/PP2R1A Complex, Table 19A) is reported as 3.01e-08 M.

`[2H]C([2H])([2H])C([2H])(C(CC[C@@H](C)[C@H]1CCC2C3C(CC[C@@]21C)[C@@]1(C)CC[C@H](NCCCNCCCCNCCCN)C[C@@H]1C[C@H]3O)OS(=O)(=O)O)C([2H])([2H])[2H]` (some centres unmarked) [Compound D7-1436] was tested, and the “Slope (signal/min)” value (PTPN1/PTP1B; Conc 1.00E−04 M) was −161 signal/min, the “Slope (signal/min)” value (PTPN1/PTP1B; Conc 1.11E−05 M) was −319 signal/min and the “Slope (signal/min)” value (PTPN1/PTP1B; Conc 1.23E−06 M) was 34760 signal/min. The “Slope (signal/min)” value (PTPN1/PTP1B; Conc 1.37E−07 M) was 40150 signal/min, the “Slope (signal/min)” value (PTPN1/PTP1B; Conc 1.52E−08 M) was 43819 signal/min and the “Slope (signal/min)” value (PTPN1/PTP1B; Conc 3.33E−05 M) was −362 signal/min. The “Slope (signal/min)” value (PTPN1/PTP1B; Conc 3.70E−06 M) was 8429 signal/min, the “Slope (signal/min)” value (PTPN1/PTP1B; Conc 4.12E−07 M) was 41755 signal/min and the “Slope (signal/min)” value (PTPN1/PTP1B; Conc 4.57E−08 M) was 43697 signal/min. For the same molecule, the “Slope (signal/min)” value (PTPN1/PTP1B; Conc 5.08E−09 M) was 44655 signal/min and the HILLSLOPE (PTPN1/PTP1B; Table 5A) was −2.50.

Work on `CCc1oc2cc(S(=O)(=O)Nc3ccc(S(=O)(=O)Nc4nccs4)cc3)ccc2c1C(=O)c1cc(Br)c(O)c(Br)c1` [PTP1B Inhibitor, 3-(3,5-Dibromo-4-hydroxy-benzoyl)-2-ethyl-benzofuran-6-sulfonicacid-(4-(thiazol-2-ylsulfamyl)-phenyl)-amide, reference compound] yielded an IC50 (PTPN6/SHP1; Table 5B, read-out: Compound IC50 (M) PTPN6/SHP1) of 5.75e-06 M, an IC50 (PTPN6/SHP1; Table 18A, read-out: inhibitory activity PTPN6/SHP1) of 3.47e-06 M and an IC50 (PTPN6/SHP1; Table 19A, read-out: inhibitory activity PTPN6/SHP1) of 3.67e-06 M. It also gave an IC50 (PTPRC/CD45; Table 5B, read-out: Compound IC50 (M) PTPRC/CD45) of 5.7e-05 M, an IC50 (PTPRC/CD45; Table 18A, read-out: inhibitory activity PTPRC/CD45) of 2.8e-05 M and an IC50 (PTPRC/CD45; Table 19A, read-out: inhibitory activity PTPRC/CD45) of 2.66e-05 M. It also gave an IC50 (PTPN2/TC-PTP; Table 5C, read-out: Compound IC50 (M) PTPN2/TC-PTP) of 1.34e-05 M, an IC50 (PTPN2/TC-PTP; Table 18B, read-out: inhibitory activity PTPN2/TC-PTP) of 7.53e-06 M and an IC50 (PTPN2/TC-PTP; Table 19B, read-out: inhibitory activity PTPN2/TC-PTP) of 5.86e-06 M. The IC50 (PTPN12/PTP-PEST; Table 5C, read-out: Compound IC50 (M) PTPN12/PTP-PEST) was 2.99e-05 M, the IC50 (PTPN12/PTP-PEST; Table 18B, read-out: inhibitory activity PTPN12/PTP-PEST) was 2.16e-06 M and the IC50 (PTPN12/PTP-PEST; Table 19B, read-out: inhibitory activity PTPN12/PTP-PEST) was 1.21e-06 M. It also gave an IC50 [2] of 1820 nM.
